Measurements published in patent US20250032476A1, “ALPHA-2A ADRENERGIC RECEPTOR MODULATORS AND USES THEREOF” (The Regents of the University of California, priority 2021, published 2025).
Like-named read-outs stand apart in the source and are kept apart here.

Assay: Pharmacokinetics in mice (plasma, brain, CSF)
Type: in vivo
[1] = mouse, plasma, ip, I.P. 10 mg/kg

For `Fc1cccc2c(Nc3ccncc3)cccc12` [Compound 7075, N-(5-fluoronaphthalen-1-yl)pyridin-4-amine], the “Fold greater CSF Cmax than PS75” value (10 mg/kg i.p.) was 4 fold, the half-life (C57BL/6N ('9087, '7075, '4622), CD-1 (PS75), mouse, CSF, ip, I.P. 10 mg/kg, read-out: T ½ CSF (converted)) was 13.2 min and the “AUC Brain” value (I.P. 10 mg/kg) was 814000 ng·min/mL. For the same compound, the “AUC CSF” value (I.P. 10 mg/kg) was 12000 ng·min/mL, the “Cmax Brain” value (I.P. 10 mg/kg) was 8570 ng/mL and the “Cmax CSF” value (I.P. 10 mg/kg) was 412 ng/mL. It also gave a half-life (mouse, brain, ip, I.P. 10 mg/kg, read-out: T ½ Brain (converted)) of 43.8 min, an AUC [1] of 952 ng·h/mL and a Cmax [1] of 694 ng/mL. For the same compound, the half-life (mouse, plasma, ip, I.P. 10 mg/kg, read-out: T ½ Plasma (converted)) was 38.4 min.
